Patent US7473434B2, “Maca extract and cosmetic composition containing such an extract” (Laboratoires Expanscience, priority 2003, dated 2009)
Values joined by “and” are separate entries in the source; they are usually repeats but may differ in a detail not shown here. Equal entries are not always repeated.

Tested on: Jurkat human lymphoid cells
Test: Lipid peroxide (LP) quantity in cells with or without UV irradiation, fluorescent probe, flow cytometry
Type: cell-based
Settings: for Fluorescence intensity Mean: mean of triplicate; for % of control: relative LP quantity; for 1/fluorescence intensity: relative quantity of lipid peroxides
From the text: The purpose of the study is to evaluate the effects of the maca peptide extract on the lipid peroxidation rate (LP) in human cells (Jurkat) exposed or not to UVA+UVB radiation. LP measurement was made with a specific fluorescent probe by flow cytometry. This method has the advantage of showing great sensitivity when measuring the fluorescence of individual cells, over a large number of cells (10 000 cells analysed per sample). The cells used are Jurkat human lymphoid cells distributed in 24-well plates with 8.10^5 cells/well. The culture medium is RPMI 1640 (Invitrogen 31870-025) at […] and in the presence of 5% CO2. The test medium is MEM without phenol red and without calf serum (Polylabo 5503401). Tests are conducted with the peptide extract obtained in example 1, with twofold dilution i.e. in the form of an extract with 5% dry matter. A solution S1 containing 2% of this extract is prepared in the test medium. The control used is butyl hydroxyanisol (BHA Sigma ref. B 1253) in a […] solution in absolute ethanol. Tests are conducted with a solution S2 containing 100 μM BHA prepared in the test medium. […] Rad. Biol. Med., 1997, 22, 13-100) in a 5 μM solution in absolute ethanol. The tests are conducted using a 1 μM probe solution S3 prepared in the test medium. The human cells are pre-incubated in the culture medium, then washed in the test medium. They are subsequently incubated in the presence of the S1 solution of the peptide extract or the S2 control solution. The probe solution S3 is added to each batch for LP assay. After 45 minutes incubation, the fluorescent probe is removed by washing in the test medium. Part of the batches are then irradiated with […], another part without irradiation used as control. After 20 minutes incubation the fluorescence parameters are measured by flow cytometry. Determination of the relative quantity of lipid peroxides (LP) is based on measurement of the reduction in fluorescence of the probe integrated in the cell membranes. An increase in the fluorescence signal translates a reduction in the basal rate of membrane lipid peroxides. The studies are conducted in triplicate. The results obtained are expressed as the value of fluorescence intensity, and percentages with respect to the control are calculated using the values of fluorescence intensity.

What does the source list for `COc1ccc(O)c(C(C)(C)C)c1` [BHA, butyl hydroxyanisol]?
Fluorescence intensity Mean (with UV irradiation, BHA 100 μM, extract 2% solution): 374.67; % of control (with UV irradiation, Test +UV = 100): 50%; 1/fluorescence intensity (with UV irradiation): 0.00267; Fluorescence intensity (with UV irradiation, single replicate values, BHA 100 μM, extract 2% solution): 362.40 and 368.20 and 393.42; Fluorescence intensity Mean (without UV, BHA 100 μM, 2% MC101): 753; % of control (without UV, Control -UV = 100): 67%; 1/fluorescence intensity (without UV): 0.00133; Fluorescence intensity n = 10000 cells (without UV, single replicate values, BHA 100 μM, 2% MC101): 741.05 and 745.64 and 770.93
